These results are taken from article PMC9949657 (PLOS ONE, 2023).

In assay [1] the test system is ovariectomized cynomolgus monkeys. Set-up: method as in PMID 21497676. The conditions noted are these: cited from earlier work.
For another assay, the system named is patients with RA. Set-up: method as in PMID 31036625. The conditions noted are these: compared with placebo, clinical trials for RA; cited from earlier work.
The subject of assay [2] is mouse collagen-induced arthritis (CIA) model. Put plainly: Micro-CT imaging in the CIA model (BMD). The assay is classed as in vivo. The conditions noted are these: for BMD: Prednisolone 3 mg/kg oral once daily. The procedure:
(§1) For the mouse CIA model, male DBA/1JNCrlj mice (7 weeks old) were injected with complete Freund’s adjuvant (CFA) (BD Biosciences) containing 2 mg/mL of bovine type II collagen at a site on the back (each 0.1 mL) and were boosted 21 days later in a similar manner. Arthritis scores were determined as previously reported.
The bone morphology of CIA mice was evaluated via micro-CT using Cosmo Scan (Rigaku, Tokyo, Japan). Hind paws of the mice were scanned using the following scanning conditions: 90 kV; 88 μA; field of view, 25 mm; 2 min. The BMD was calculated using the Analyze version 11.0 software (Biomedical Imaging Resource, Mayo Clinic, Rochester, MN). The bone was determined to have a BMD value ≥480 mg/cm^3, and the region of interest for calculating the BMD included the talus and cuboid. BMD was calibrated using a QRM-MicroCT-HA phantom (Quality Assurance in Radiology and Medicine, Moehrendorg, Germany) that was scanned on each day when micro-CT of animals was performed. Calibration was performed via scanning phantoms with densities of 0, 50, 200, 800, and 1200 mg HA/cm^3, and data analysis was performed using the Analyze11.0 Bone Mineral Density Analysis procedure.

Assay [3] shares this test system. In words: Mouse CIA model, arthritis score (15-day treatment). The assay is classed as in vivo. The conditions noted are these: Prednisolone 3 mg/kg oral once daily. The procedure: as §1
The test system is the same in assay [4]. In words: Mouse CIA model, arthritis score of hind paws (21-day treatment). The class given is in vivo. The conditions noted are these: Prednisolone 3 mg/kg oral once daily. The procedure:
as §1

The test system of assay [5] is rat collagen-induced arthritis (CIA) model. Put plainly: Rat CIA model, hind paw volume. The class given is in vivo. Set-up: unit not given beside the values. The conditions noted are these: Prednisolone 1 mg/kg oral once daily. The procedure: For the rat CIA model, experimental arthritis was induced and volumes of both hind paws were measured as previously described.

In assay [6] the test system is mouse collagen-induced arthritis (CIA) model. In words: Histopathological evaluation in the mouse CIA model. The class given is in vivo. The conditions noted are these: Prednisolone 3 mg/kg oral, 15 days. The procedure: as §1
On the day after the final administration, the four limbs of each mouse were harvested and decalcified in […]. The specimens were then embedded in paraffin blocks, cut into sections, stained with hematoxylin and eosin, and randomly selected for microscopic examination. Histopathological assessments were performed as described previously. This experiment was carried out in the laboratory of the BoZo Research Center Inc. (Ibaraki, Japan).

Consider “denosumab: anti-human RANKL monoclonal antibody”, for which the “BMD and bone strength” value in assay [1] is “improved”. Also, the bone erosion progression entry with patients with RA is reported as “inhibited”.
As to `C[C@]12C=CC(=O)C=C1CC[C@@H]1[C@@H]2[C@@H](O)C[C@@]2(C)[C@H]1CC[C@]2(O)C(=O)CO` [Prednisolone, prednisolone], the BMD in assay [2] (day 1) came to 957.82 mg/mL; in assay [2] (day 8) it was 961.86 mg/mL; in assay [2] (day 14) it was 984.25 mg/mL; in assay [2] (day 22) it was 1000.83 mg/mL. Further, in assay [2] (Prednisolone 3 mg/kg/day, 21 days), the “decline in BMD, effect compared with vehicle” value was “did not exhibit significant therapeutic effects”. Moreover, the Arthritis score is on record as 6.63 in assay [3] (day 1); 7.88 in assay [3] (day 4); 8.38 in assay [3] (day 8); 7.88 in assay [3] (day 11); 2.88 in assay [3] (day 15). The “Arthritis score of hind paws” value in assay [4] (day 1) is 7.33; in assay [4] (day 8), 6.58; in assay [4] (day 14), 5.75; in assay [4] (day 22) it was 4.75. Also, the Hind paws volume in assay [5] (day 0) is reported as 2.1; in assay [5] (day 4) it was 2.12; in assay [5] (day 7), 2.09; in assay [5] (day 11), 2.16; in assay [5] (day 14), 2.18; in assay [5] (day 18), 2.25. In assay [5] (day 21), the Hind paws volume stood at 2.37. Also, the “Histological score, Bone damage” value in assay [6] amounted to 3.50. The “Histological score, Cartilage damage” value in assay [6] stood at 4.75. Further, the “Histological score, Inflammation” value in assay [6] was 5.25. In addition, the “Histological score, Pannus” value in assay [6] turned out to be 4.13.
